# Laboratory results: patent US5545648A (Canadian Spinal Research Organization, priority 1992, dated 1996)
# “Also recorded” adds a separate entry of the source.
# Assays:
# [1] = system: spinal cord injured patients; experiment: Negative side-effects, EEG and vital sign monitoring; type: in vivo, human
# Description: The schedule of each trial was the same. The patient was admitted to the hospital on the preceding day and in the early morning was assessed by neurological examination and electro-diagnostic evaluation. Administration of the drug or placebo, through an in dwelling venous catheter, was then begun and continued for approximately 2 hours, arranged in 20 minute sequences based on delivery of 1 ml aliquots of the 4-AP solution. The patient was monitored electroencephalographically at frequent intervals throughout the procedure. Samples of blood and urine were obtained from an additional intravenous catheter and from the urinary catheter respectively. Blood was obtained at intervals up to 5 hours from the beginning of drug delivery and urine obtained pre-infusion and at 1 and 2 hours after the beginning of infusion. The patients were re-evaluated by complete neurological examination, by the same examiner, at the end of the period of drug delivery. They were then re-examined with the electrodiagnostic tests. A more limited neurological examination was sometimes performed during drug delivery in an attempt to identify any early changes, without producing significant testing fatigue. The electrodiagnostic tests were repeated at 2 hours after the cessation of drug delivery. Patients showing apparent effects of the treatment remained in the hospital overnight and were examined on the following day. Subsequent contact with the patients was by telephone interview or as a result of their correspondence regarding longer term changes associated with their treatment.
# Immediately before and after the infusion of 4-AP or placebo, and at approximately 2 hours after the end of the infusion, patients were evaluated with a set of standard electro-diagnostic tests: conduction in peroneal, posterior tibial and sural nerves, electromyography of tibial is anterior and gastroc-nemius muscles during rest and maximal voluntary contraction, and somatosensory evoked potentials. Patients were also monitored with electroencephalography, at intervals during the infusion, to look for evidence of potential for seizure activity.
# [2] = system: animals with experimental or naturally occurring spinal cord injuries; conditions: intravenous injection; cited from earlier work
compound,measurement,setting,value
"Nc1ccncc1 [4-AP, 4-aminopyridine]",most frequent side effect: arm discomfort,[1]; arm in which the drug was infused,discomfort in the arm in which the drug was infused
same,adverse indications on EEG and vital signs,[1]; during infusion,No adverse indications were detected
same,duration of warm sensation under the skin from neck to back,[1]; subject four,two days
same,side effects in individual subject,[1]; subject named in the block (LJ; EB; GCh; AW),"pain in the left arm, and some nausea and light-headedness; also recorded: ""warm sensation under the skin from neck to back"" for two days and an episode of constipation; also recorded: no negative side effects; also recorded: After 21 mg of the infusion, their arm became quite painful and they became anxious, then angry, and began to show alternative bouts of sweating and shivering"
same,infusion suspended / not completed,"[1]; subject two, 25 mg rather than planned 30 mg","Infusion was suspended in this case because of a combination of discomfort in the arm at the site of infusion, and a significant degree of agitation and anxiety"
same,electrophysiological and behavioral function,[2],"significant improvements in electrophysiological (Blight and Gruner, 1987) and behavioral function"
